Earlier results as cited in US12702640B2, “Drug implants containing enzalutamide and methods of use thereof” (The Regents of the University of California, priority 2021, dated 2026).

Details: assuming 240 mg daily dose; systemic (e.g., oral) administration

Structure (SMILES): CNC(=O)c1ccc(N2C(=S)N(c3ccc(C#N)c(C(F)(F)F)c3)C(=O)C2(C)C)cc1F [enzalutamide, Enzalutamide]
- steady state blood plasma concentration: about 6 μg/ml
